In patent US6531584B1, “2'modified oligonucleotides” (ISIS Pharmaceuticals, Inc., priority 1990, dated 2003):
Entries after “also recorded” stand apart in the source; their conditions may differ. Strand notation (5' to 3'): a small letter for the sugar, then the base; units joined by * are phosphorothioate-linked, units joined directly phosphodiester-linked; [ ] holds rarer units or linkages, { } end groups; capitals alone tell only the bases. d = 2'-deoxy (DNA); m = 2'-O-methyl

How the values were obtained:
c-raf mRNA = test: Northern blot analysis of c-raf mRNA expression in T24 cells; format: cell-based, human
Excerpt: Chimeric oligonucleotides having SEQ ID NO:7 were designed using the Genbank c-raf sequence HUMRAFR (Genbank listing x03484), synthesized and tested for inhibition of c-raf mRNA expression in T24 bladder carcinoma cells using a Northern blot assay. These chimeric oligonucleotides have central “gap” regions of 6, 8 or 10 deoxynucleotides flanked by two regions of 2′-O-methyl modified nucleotides, and are shown in Table 10. Backbones were uniformly phosphorothioate. […] These oligonucleotides are preferred.
The human urinary bladder cancer cell line T24 was obtained from the American Type Culture Collection (Rockville, Md.). Cells were grown in McCoy's 5A medium with L-glutamine (GIBCO-BRL, Gaithersburg, Md.), supplemented with 10% heat-inactivated fetal calf serum and 50 U/ml each of penicillin and streptomycin. Cells were seeded on 100 mm plates. When they reached 70% confluency, they were treated with oligonucleotide. Plates were washed with 10 ml prewarmed PBS and 5 ml of OptiMEM reduced-serum medium containing 2.5 μl DOTMA. Oligonucleotide with lipofectin was then added to the desired concentration. After 4 hours of treatment, the medium was replaced with McCoy's medium. Cells were harvested 24 to 72 hours after oligonucleotide treatment and RNA was isolated using a standard CsCl purification method. [Kingston in Current Protocols in Molecular Biology, F. M. Ausubel, R. Brent, R. E. Kingston, D. D. Moore, J. A. Smith, J. G. Seidman and K. Strahl, Eds., John Wiley and Sons, New York.] Total RNA was isolated by centrifugation of cell lysates over a CsCl cushion. RNA samples were electrophoresed through 1.2% agarose-formaldehyde gels and transferred to hybridization. membranes by capillary diffusion over a 12-14 hour period. The RNA was cross-linked to the membrane by exposure to UV light in a Stratalinker (Stratagene, La Jolla, Calif.) and hybridized to random-primed ^32P-labeled c-raf cDNA probe (obtained from ATCC) or G3PDH probe as a control. RNA was quantitated using a Phosphorimager (Molecular Dynamics, Sunnyvale, Calif.).

PKC-α mRNA = test: Northern blot analysis of PKC-α mRNA levels; format: cell-based, human; conditions: FIGS. 3 to 5
Experimental: Oligonucleotides having SEQ ID NO:4 were synthesized as uniformly phosphorothioate chimeric oligonucleotides having a centered deoxy gap of varying lengths flanked by 2′-O-methylated regions. These oligonucleotides (500 nM concentration) were tested for effects on PKC-α mRNA levels by Northern blot analysis.

[1] = test system: mutant (activated) H-ras RNA; format: cell-based, human
ras mRNA = test: Northern blot analysis of ras expression in T24 cells; format: cell-based, human; parameters: inhibition of ras expression / decrease of ras mRNA: concentration or dose not given beside the values; conditions: for inhibition of ras expression: T24 cells (activated codon-12); for inhibition of ras expression / decrease of ras mRNA: T24 cells, Northern blot
Experimental: (§1) The human urinary bladder cancer cell line T24 was obtained from the American Type Culture Collection (Rockville Md.). Cells were grown in McCoy's 5A medium with L-glutamine (GIBCO-BRL, Gaithersburg, Md.), supplemented with 10% heat-inactivated fetal calf serum and 50 U/ml each of penicillin and streptomycin. Cells were seeded on 100 mm plates. When they reached 70% confluency, they were treated with oligonucleotide. Plates were washed with 10 ml prewarmed PBS and 5 ml of OptiMEM (GIBCO) reduced-serum medium containing 2.5 μl DOTMA. Oligonucleotide was then added to the desired concentration. After 4 hours of treatment, the medium was replaced with McCoy's medium. Cells were harvested 48 hours after oligonucleotide treatment and RNA was isolated using a standard CsCl purification method. [Kingston in Current Protocols in Molecular Biology, F. M. Ausubel, R. Brent, R. E. Kingston, D. D. Moore, J. A. Smith, J. G. Seidman and K. Strahl, Eds., John Wiley and Sons, New York.] The human epithelioid carcinoma cell line HeLa 229 was obtained from the American Type Culture Collection (Bethesda, Md.). HeLa cells were maintained as monolayers on 6-well plates in Dulbecco's Modified Eagle's medium (DMEM) supplemented with 10% fetal bovine serum and 100 U/ml penicillin. Treatment with oligonucleotide and isolation of RNA were essentially as described above for T24 cells.
Northern hybridization: 10 μg of each RNA was electrophoresed on a 1.2% agarose/formaldehyde gel and transferred overnight to GeneBind 45 nylon membrane (Pharmacia LKB, Piscataway, N.J.) using standard methods. [Kingston in Current Protocols in Molecular Biology, F. M. Ausubel, R. Brent, R. E. Kingston, D. D. Moore, J. A. Smith, J. G. Seidman and K. Strahl, Eds., John Wiley and Sons, New York.] RNA was UV-crosslinked to the membrane. Double-stranded ^32P-labeled probes were synthesized using the Prime a Gene labeling kit (Promega, Madison, Wis.). The ras probe was a SalI-NheI fragment of a cDNA clone of the activated (mutant) H-ras mRNA having a GGC-to-GTC mutation at codon-12. The control probe was G3PDH. Blots were prehybridized for 15 minutes at 68° C. with the QuickHyb hybridization solution (Stratagene, La Jolla, Calif.). The heat-denatured radioactive probe (2.5×10^6 counts/2 ml hybridization solution) mixed with 100 μl of 10 mg/ml salmon sperm DNA was added and the membrane was hybridized for 1 hour at 68° C. The blots were washed twice for 15 minutes at room temperature in 2×SSC/0.1% SDS and once for 30 minutes at 60° C. with 0.1×SSC/0.1%SDS. Blots were autoradiographed and the intensity of signal was quantitated using an ImageQuant PhosphorImager (Molecular Dynamics, Sunnyvale, Calif.). Northern blots were first hybridized with the ras probe, then stripped by boiling for 15 minutes in 0.1×SSC/0.1%SDS and rehybridized with the control G3PDH probe to check for correct sample loading.

T24 cancer cell = test: Inhibition of proliferation of cancer cells; format: cell-based, human; conditions: 100 nM oligonucleotide concentration
Experimental: Cells were cultured and treated with oligonucleotide essentially as described in Example 27. Cells were seeded on 60 mm plates and were treated with oligonucleotide in the presence of DOTMA when they reached 70% confluency. Time course experiment: On day 1, cells were treated with a single dose of oligonucleotide at a final concentration of 100 nM. The growth medium was changed once on day 3 and cells were counted every day for 5 days, using a counting chamber. Dose-response experiment: Various concentrations of oligonucleotide (10, 25, 50, 100 or 250 nM) were added to the cells and cells were harvested and counted 3 days later. Oligonucleotides 2570, 3985 and 4690 were tested for effects on T24 cancer cell proliferation. EXAMPLE 29

[2] = test system: ras mRNA (wild-type H-ras codon-12); test: Northern blot analysis of ras expression in HeLa cells; format: cell-based, human; conditions: HeLa cells (wild-type H-ras codon-12)
Experimental: as §1, with “The human epithelioid carcinoma cell line HeLa 229 was obtained from the American Type Culture Collection (Bethesda, Md.). HeLa cells were maintained as monolayers on 6-well plates in Dulbecco's Modified Eagle's medium (DMEM) supplemented with 10% fetal bovine serum and 100 U/ml penicillin. Treatment with oligonucleotide and isolation of RNA were essentially as described above for T24 cells.” left out
Northern hybridization: 10 μg of each RNA was electrophoresed on a 1.2% agarose/formaldehyde gel and transferred overnight to GeneBind 45 nylon membrane (Pharmacia LKB, Piscataway, N.J.) using standard methods. […] Blots were autoradiographed and the intensity of signal was quantitated using an ImageQuant PhosphorImager (Molecular Dynamics, Sunnyvale, Calif.). […]

[3] = test system: RNA complement “Y” strand ribo(3′GAG CAU GGY AAG GCC AGG5′); test: Base-pair specificity: single base mismatches and bulge, thermal melting; format: binding; conditions: single base-pair mismatches and a bulge
Experimental: The ability of the 2′-modified oligonucleotides to hybridize to their complementary RNA or DNA sequences was determined by thermal melting analysis. The RNA complement was synthesized from T7 RNA polymerase and a template-promoter of DNA synthesized with an Applied Biosystems, Inc. 380B RNA species was purified by ion exchange using FPLC (LKB Pharmacia, Inc.). Natural antisense oligonucleotides or those containing 2′-modifications at specific locations were added to either the RNA or DNA complement at stoichiometric concentrations and the absorbance (260 nm) hyperchromicity upon duplex to random coil transition was monitored using a Gilford Response II spectrophotometer. These measurements were performed in a buffer of 10 mM Na-phosphate, pH 7.4, 0.1 mM EDTA, and NaCl to yield an ionic strength of 10 either 0.1 M or 1.0 M. Data was analyzed by a graphic representation of 1/Tm vs ln[Ct], where [Ct] was the total oligonucleotide concentration. From this analysis the thermodynamic parameters were determined. Based upon the information gained concerning the stability of the duplex of heteroduplex formed, the placement of modified pyrimidine into oligonucleotides were assessed for their effects on helix stability.
Base-pair specificity of 2′-deoxy-2′-fluoro modified oligonucleotides with the RNA complement (a “Y” strand) was determined by effecting single base-pair mismatches and a bulge. […]

Substance | inhibition of c-raf mRNA expression (c-raf mRNA) | reduction of PKC-α mRNA levels (PKC-α mRNA) | other results
TCCTCCTCCCCGCGGCGGGT (2'-O-methyl P=S chimera, chemistry not fully specified) [ISIS 7848] | > 70% | – | –
AsAoAoAoCoGsTsCsAsGsCsCsAsTsGoGoToCoCsC (AAAACGTCAGCCATGGTCCC; linkages s1 o4 s9 o4 s1 (s phosphorothioate, o phosphodiester), sugars by position and methylation of C not given here; further chemistry not fully specified) [Oligonucleotide 7008] | – | show reduction of PKC-α mRNA | –
AsAsAsAsCsGsTsCsAsGsCsCsAsTsGsGsTsCsCsC (dA*dA*dA*dA*dC*dG*dT*dC*dA*dG*dC*dC*dA*dT*dG*dG*dT*dC*dC*dC) [Oligonucleotide 3522] | – | show reduction of PKC-α mRNA | –
AsAsAsAsCsGsTsCsAsGsCsCsAsTsGsGsTsCsCsC (AAAACGTCAGCCATGGTCCC; 2'-O-methyl/deoxy P=S chimera, chemistry not fully specified) [Oligonucleotide 5352] | – | most active | –
TCCCGCCTGTGACATGCATT (2'-O-methyl P=S chimera, 6-deoxy gap, chemistry not fully specified) [ISIS 6720] | greater than 70% | – | –
CTCGCCCGCTCCTCCTCCCC (2'-O-methyl P=S chimera, chemistry not fully specified) [ISIS 7849] | > 70% | – | –
AsAoAoAoCoGsTsCsAsGsCsCsAsTsGoGoToCoCsC (AAAACGTCAGCCATGGTCCC; listed as DNA, chemistry not fully specified) [Oligonucleotide 7294] | – | more active than their 2′-O-methyl counterparts | –
TTCTCGCCCGCTCCTCCTCC (2'-O-methyl P=S chimera, chemistry not fully specified) [ISIS 7856] | > 70% | – | –
TTCTCCTCCTCCCCTGGCAG (sugars from the 5' end m12 d8, all phosphorothioate, T or U not given here) [ISIS 7854] | > 70% | – | –
AoAoAoAoCoGsTsCsAsGsCsCsAsTsGoGoToCoCoC (AAAACGTCAGCCATGGTCCC; listed as DNA, chemistry not fully specified) [Oligonucleotide 7273] | – | more active than their 2′-O-methyl counterparts | –
TsCsTs CsGsCs TsGsGs TsGsAs GsTsTs TsC (TCTCGCTGGTGAGTTTC; all phosphorothioate, sugars by position and methylation of C not given here) [Oligonucleotide 7082] | – | most active in reducing PKC-α mRNA levels | –
TsTsCs TsCsGs CsTsGs GsTsGs AsGsTs TsTsC (TTCTCGCTGGTGAGTTTC; all phosphorothioate, sugars by position and methylation of C not given here) [Oligonucleotide 6632] | – | most active in reducing PKC-α mRNA levels | –
TCCCGCCTGTGACATGCATT (2'-O-methyl P=S chimera, 8-deoxy gap, chemistry not fully specified) [ISIS 6717] | greater than 90% | – | –
CdCdAd CdAdCd CdGdAd CdGdGd CdGdCd CdCd [Oligonucleotide 2570, reference compound] | – | – | inhibition of ras-luciferase activity [1]: dose-dependent inhibition of ras-luciferase activity; selectivity toward the mutant form of ras-luciferase as compared to the normal form [1]: approximate threefold selectivity; inhibition of ras expression (ras mRNA): inhibited ras expression in T24 cells; also recorded: decreased ras mRNA levels in T24 cells; inhibition of ras expression / decrease of ras mRNA (ras mRNA): 82%; inhibition of T24 cell proliferation relative to inhibition of HeLa cells (T24 cancer cell): four times as severe; inhibition of ras expression [2]: did not inhibit ras expression in HeLa cells
deoxy(CUC GUACCUUUCCGG UCC) (CUCGUACCUUUCCGGUCC; 14 2'-deoxy-2'-fluoro nucleotides, chemistry not fully specified) | – | – | specificity of duplex formation with the RNA complement [3]: greater specificity than a like-sequenced unmodified oligonucleotide
TCCGTCATCGCTCCTCAGGG [Oligonucleotide 2503] | – | – | inhibition of ras expression (ras mRNA): inhibited ras expression in T24 cells; inhibition of ras expression / decrease of ras mRNA (ras mRNA; listed as 2503): 71%; inhibition of ras expression [2]: inhibited ras expression in HeLa cells
